Laboratory results as given in PMC6443933, “Antagonizing Retinoic Acid-Related-Orphan Receptor Gamma Activity Blocks the T Helper 17/Interleukin-17 Pathway Leading to Attenuated Pro-inflammatory Human Keratinocyte and Skin Responses” (Frontiers in Immunology, 2019).

Tests used:
[1] = biological target: T1, RORγt-LBD (Homo sapiens, UniProt P51449); assay: RORγt-LBD/GAL4 transactivation reporter gene assay in Jurkat T-cells; type: cell-based
T1 construct: luciferase reporter gene transcription is driven by the GAL4-RORγt-LBD fusion construct; expressed in transfected cells; host or cells: Jurkat cells stably carrying pGL4.35 (9 x GAL4 sites, luciferase)
T1 sequence (P51449 269-508 limits assumed): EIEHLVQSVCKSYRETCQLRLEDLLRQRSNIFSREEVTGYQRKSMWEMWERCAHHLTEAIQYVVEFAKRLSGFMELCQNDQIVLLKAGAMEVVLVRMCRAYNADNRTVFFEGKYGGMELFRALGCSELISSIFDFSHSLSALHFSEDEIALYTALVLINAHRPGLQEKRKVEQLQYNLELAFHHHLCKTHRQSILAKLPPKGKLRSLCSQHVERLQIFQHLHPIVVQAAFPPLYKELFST
Procedure: Selectivity against other ROR family members was assessed in a GAL4 reporter gene assay as previously described ([44]). Briefly, Jurkat cells stably expressing the pGL4.35 plasmid (Promega) containing nine GAL4 binding sites inducing the transcription of the luciferase reporter gene were transiently transfected with the human RORα, RORβ or RORγt-LBD/GAL4-DBD constructs. After 24 h post-transfection, cells were incubated with Cpd A for an additional 24 h before luciferase activity was determined using an EnVision Multilabel Plate Reader (Perkin Elmer).

[2] = system: total CD4+ T-cells; assay: Th0, Th1, Th2 polarization, signature cytokine ELISA; type: cell-based, human
Procedure: Total, naive and memory CD4^+ T cells were isolated from Peripheral blood mononuclear cells (PBMCs) from healthy volunteers by density gradient centrifugation using Ficoll Paque (GE). Total, naive or memory CD4^+ T-cells were prepared by immunomagnetic separation using the respective CD4^+ T-cell enrichment kits resulting in untouched highly purified subsets (EasySep™, Stem Cell). Purity was assessed by flow cytometry and was between 95 and 98% for the total CD4^+ T-cells. The purity of naive (CD45RA^+CD45RO^−) and memory (CD45RA^−CD45RO^+) CD4^+T-cells ranged between 95 and 98%, respectively. For T-cell stimulation experiments, cells were treated as previously published ([44]). Briefly, T-cells were stimulated with plate-bound monoclonal antibodies against CD3 (1 μg/ml, clone OKT-3, BioXcell) and CD28 (1 μg/ml, clone CD28.2, BioLegend). For Th17 polarization assays, IL-6 (20 ng/ml), TGF-β1 (5 ng/ml), IL-1β (10 ng/ml), and IL-23 (10 ng/ml) were added. For Th1 polarization assays, IL-12 (10 ng/ml) and anti-IL-4 antibody (5 μg/ml), for Th2 polarizations, IL-4 (10 ng/ml) and anti-IFN-γ antibody (5 μg/ml) were added. For Th0 polarization assays, cells were only stimulated with CD3 and CD28 antibodies. Supernatants were collected after 3 or 7 days of incubation for total or naive/memory CD4^+ T-cell polarizations, respectively. Cytokine concentrations were quantified by ELISA according to the manufacturer's instructions (eBioscience or BioLegend).

[3] = biological target: T2, full-length RORγt (Homo sapiens, UniProt P51449); assay: 4 x RORE luciferase reporter assay in HUT78 T-cells expressing full-length RORγt; type: cell-based; conditions: CD3 antibody plus PMA, 48 h, read-out: IC50, 4 x RORE-driven luciferase activity
T2 construct: HUT78 T-cells stably expressing full-length eGFP-RORγt; eGFP; expressed in transfected cells
T2 sequence (P51449 1-497 isoform P51449-2): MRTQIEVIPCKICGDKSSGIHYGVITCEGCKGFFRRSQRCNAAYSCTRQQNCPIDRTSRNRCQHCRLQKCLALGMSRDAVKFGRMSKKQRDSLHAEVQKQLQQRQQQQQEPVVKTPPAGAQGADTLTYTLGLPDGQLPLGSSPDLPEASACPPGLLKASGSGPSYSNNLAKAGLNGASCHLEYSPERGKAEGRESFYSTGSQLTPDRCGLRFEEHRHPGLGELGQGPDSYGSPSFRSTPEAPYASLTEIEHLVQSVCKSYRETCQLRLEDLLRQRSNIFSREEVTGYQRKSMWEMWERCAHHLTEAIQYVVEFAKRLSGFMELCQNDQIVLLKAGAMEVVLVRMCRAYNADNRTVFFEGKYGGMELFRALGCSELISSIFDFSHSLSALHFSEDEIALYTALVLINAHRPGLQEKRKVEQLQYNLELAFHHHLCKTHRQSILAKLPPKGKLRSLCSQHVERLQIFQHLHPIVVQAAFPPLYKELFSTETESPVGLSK
Text: HUT78 T-cells stably expressing full-length eGFP-RORγt or eGFP-empty vector were generated as described before ([45]). Cells were transfected with plasmids containing 4 × ROREs inserted into the pGL4.17 luciferase Firefly reporter plasmid (kindly provided by Dr. Juergen Reinhardt, Novartis). As a control construct, a mutated or a non-functional form of 4 × RORE (Mut-RORE), was transfected in eGFP-RORγt HUT78 T-cells. The plasmids contained the following sequences where the bold nucleotides represent the putative RORγt binding site or the mutated form of the RORE:
Two days after transfection, cells were incubated in X-vivo 15 medium containing 10% FCS and 700 μg/ml Geneticin (Corning) and stable clones expressing the 4 × ROREs or mutated-ROREs were obtained by limiting dilution. The luciferase expression of the individual cell clones was measured using Luciferase detection buffer (Perkin Elmer) and the RORC mRNA expression of the selected clones were quantified by qRT-PCR. […]

[4] = system: RORγt expression; assay: RORγt expression in cultures (data not shown); type: cell-based; conditions: preliminary evidence

Compound: Cc1ccc(C(=O)Nc2cn3ccnc3c(CN3CCN(c4noc(C(C)(C)C)n4)[C@@H](C)C3)c2C)cn1 [Cpd A, (S)-N-(8-((4-(5-(tert-butyl)-1,2,4-oxadiazol-3-yl)-3-methylpiperazin-1-yl)methyl)-7-methylimidazo[1,2-a]pyridin-6-yl)-6-methylnicotinamide]
- inhibition of GAL4 promoter activity [1]: complete inhibition
- IC50 ([1]; luciferase, 24 h with compound): 95 nM
- Th2 signature cytokine production (IL-13) ([2]; IL-4 and anti-IFN-γ antibody): did not have any impact
- Th1 signature cytokine production (IFN-γ) ([2]; IL-12 and anti-IL-4 antibody): did not have any impact
- Th0 signature cytokine production (IL-2) ([2]; anti-CD3 plus anti-CD28 only): did not have any impact
- IC50 [3]: 64 nM
- RORγt expression in cultures [4]: did not modify
